Some test systems named below: ACHN; CAKI-1; COLO 205; DU-145; HL-60; HOP-92; KM12; LOX IMVI; MDA-MB-231; MDA-MB-435; Malme-3M; NCI-H226; OVCAR-5; SF-295; SK-MEL-2; SW-620; T47D; U-251; SR.
What all share (test): inhibition of tumour cell growth, NCI panel, 48 h

Structures are written as SMILES.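 Dose response: 5 concentrations. Exposure: 48 h. Format: 96-well plates. Endpoint: linear interpolation; highest concentration if not reached. GI50 marks 50% less growth.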 Active and inactive are the calls of the source. Cut-off read from the data, not from the text of the source: active = GI50 up to about 1.1 µM and inactive = higher. Residues, ends and D or L forms follow the SMILES beside them. *: point of attachment. X38 = O=C(c1ccc(-c2ccc(Cl)cc2Cl)o1)*

The values below come from ChEMBL document CHEMBL1201862, “PubChem BioAssay data set” (2004).

Turning to `COc1cc2c(cc1OC)C1Cc3cc(OC)c(OC)cc3C(C2)N1C`, the GI50 is > 100 µM (inactive) with ACHN; 85.1 µM (inactive) in the assay with CAKI-1; > 75 µM (inactive) in the assay on COLO 205; > 75 µM (inactive) in the assay with DU-145; 14.9 µM (inactive) in the assay on HL-60; 7.71 µM (inactive) in the assay on HOP-92. In addition, the GI50 is 44.3 µM (inactive) in the assay with KM12; 48 µM (inactive) with LOX IMVI; 0.0297 µM (active) with MDA-MB-231; > 75 µM (inactive) in the assay with MDA-MB-435; > 75 µM (inactive) with Malme-3M; > 75 µM (inactive) in the assay with NCI-H226. Moreover, the GI50 in the assay on OVCAR-5 was > 100 µM (inactive); with SF-295, 40.6 µM (inactive); with SK-MEL-2 it was > 75 µM (inactive); with SW-620 it was > 100 µM (inactive); in the assay with T47D, > 75 µM (inactive); with U-251, > 100 µM (inactive).
For `COC(=O)c1c(C)cccc1CC1Cc2c(C)cccc2C1=O` (stereo unspecified), the GI50 with ACHN was 35.7 µM (inactive); in the assay on CAKI-1, 33.4 µM (inactive); with COLO 205, 21.2 µM (inactive); in the assay on DU-145, 60.1 µM (inactive); in the assay with HL-60, 16.9 µM (inactive); with HOP-92 it was 24.4 µM (inactive). The GI50 in the assay on KM12 is 20.1 µM (inactive); in the assay with LOX IMVI, 12 µM (inactive); in the assay with MDA-MB-231, 32.4 µM (inactive); in the assay on MDA-MB-435, 21.7 µM (inactive); in the assay with Malme-3M, 21.6 µM (inactive); in the assay with NCI-H226, 20.6 µM (inactive). In addition, the GI50 with OVCAR-5 is 80.2 µM (inactive); with SF-295, 32.8 µM (inactive); in the assay with SK-MEL-2, 18.7 µM (inactive); with SW-620 it was 40.6 µM (inactive); with T47D, 27.5 µM (inactive); in the assay with U-251, 40 µM (inactive).
Turning to `ClCCCc1ccccc1C1=NCCc2ccccc21`, the GI50 with ACHN is > 100 µM (inactive); in the assay on CAKI-1 it was > 100 µM (inactive); in the assay with COLO 205 it was 22 µM (inactive); in the assay with DU-145, > 100 µM (inactive); in the assay on HL-60, 23.5 µM (inactive); in the assay on HOP-92, 81.1 µM (inactive). The GI50 is 40.9 µM (inactive) in the assay on KM12; > 100 µM (inactive) with MDA-MB-231; 37.5 µM (inactive) in the assay with MDA-MB-435; 55.1 µM (inactive) in the assay on NCI-H226; > 100 µM (inactive) in the assay with OVCAR-5; > 100 µM (inactive) in the assay with SF-295. Further, the GI50 was > 100 µM (inactive) with SK-MEL-2, > 100 µM (inactive) in the assay with SW-620, 31.3 µM (inactive) in the assay on T47D and 25.8 µM (inactive) in the assay with U-251.
Consider `CSc1nc(C)cc(Nc2ccc(O)c(CN3CCCCC3)c2)n1`, for which the GI50 in the assay on ACHN was 83 µM (inactive); in the assay with CAKI-1, > 100 µM (inactive); in the assay with COLO 205 it was 29 µM (inactive); with DU-145 it was 64.3 µM (inactive); in the assay on HOP-92, 72.4 µM (inactive); in the assay on KM12, > 100 µM (inactive). Further, the GI50 in the assay with LOX IMVI was 33 µM (inactive); in the assay on MDA-MB-435, 57.5 µM (inactive); with Malme-3M, 48.6 µM (inactive); in the assay with NCI-H226, 32.4 µM (inactive); with OVCAR-5 it was 28.6 µM (inactive); in the assay on SF-295, 37.9 µM (inactive). Besides, the GI50 in the assay on SR is 32.1 µM (inactive); in the assay with SW-620, 71.9 µM (inactive); in the assay with T47D, 68.1 µM (inactive).
For `CNC(=O)N1CN(c2ccccc2)C2(CCN(Cc3ccccc3)CC2)C1=O`, the GI50 with ACHN was > 100 µM (inactive); with CAKI-1, > 100 µM (inactive); in the assay on COLO 205, 35.6 µM (inactive); in the assay with DU-145, > 100 µM (inactive); in the assay on HL-60 it was 43.1 µM (inactive); with KM12 it was 29.9 µM (inactive). Besides, the GI50 is 50.5 µM (inactive) with LOX IMVI; 19.5 µM (inactive) in the assay with MDA-MB-231; 70.1 µM (inactive) in the assay on Malme-3M; > 100 µM (inactive) in the assay on NCI-H226; 1.05 µM (active) in the assay on OVCAR-5; > 100 µM (inactive) in the assay on SF-295. Also, the GI50 is 15.7 µM (inactive) in the assay on SR, 46.1 µM (inactive) in the assay on SW-620, 1.87 µM (inactive) with T47D and > 100 µM (inactive) in the assay on U-251.
Take `CCOC(CCCN1CCC2(CC1)C(=O)N(C)CN2c1ccccc1)(OCC)c1ccc(F)cc1`: the GI50 in the assay with ACHN is 5.16 µM (inactive); in the assay with CAKI-1 it was 6.59 µM (inactive); with COLO 205, 2.52 µM (inactive); with DU-145, 6.87 µM (inactive); in the assay with HL-60 it was 13 µM (inactive); in the assay with KM12 it was 15.3 µM (inactive). In addition, the GI50 with LOX IMVI was 16.1 µM (inactive); in the assay on MDA-MB-231, 14.2 µM (inactive); in the assay on Malme-3M it was 16.2 µM (inactive); with NCI-H226, 18.3 µM (inactive); in the assay with OVCAR-5, 7.89 µM (inactive); with SF-295, 12.7 µM (inactive). For the same compound, the results for the GI50 in the assay on SW-620, in the assay with T47D and with U-251 were 10.4 µM (inactive), 4.95 µM (inactive) and 12.2 µM (inactive), respectively.
Turning to `COc1cc2c[n+](C)c3c4ccccc4ccc3c2cc1OC`, the GI50 with ACHN was 35.9 µM (inactive); in the assay on CAKI-1 it was 55.3 µM (inactive); in the assay on COLO 205, 0.991 µM (active); in the assay with DU-145 it was 3.8 µM (inactive); with KM12, 0.452 µM (active); with LOX IMVI, 12.9 µM (inactive). In addition, the GI50 was 5.05 µM (inactive) with MDA-MB-231; 3.83 µM (inactive) in the assay with MDA-MB-435; 1.55 µM (inactive) in the assay on Malme-3M; 2.94 µM (inactive) in the assay with NCI-H226; 26.7 µM (inactive) in the assay on OVCAR-5; 16.9 µM (inactive) in the assay on SF-295. Moreover, the GI50 in the assay on SK-MEL-2 was 5.69 µM (inactive); in the assay on SW-620, 1.95 µM (inactive); in the assay with T47D, 2.06 µM (inactive); with U-251, 0.726 µM (active).
Regarding `COc1ccc(-c2nc(-c3ccc(OC)cc3)n(-c3ccccc3)n2)cc1`, the GI50 in the assay on ACHN was > 100 µM (inactive); in the assay with CAKI-1, > 100 µM (inactive); in the assay with COLO 205 it was 46.9 µM (inactive); in the assay on DU-145, > 100 µM (inactive); in the assay on HL-60, 30.5 µM (inactive); in the assay with HOP-92, 52 µM (inactive). In addition, the GI50 was 40.2 µM (inactive) in the assay with KM12; 41.1 µM (inactive) in the assay on LOX IMVI; 50.2 µM (inactive) in the assay on MDA-MB-231; > 100 µM (inactive) in the assay with MDA-MB-435; > 100 µM (inactive) with NCI-H226; > 100 µM (inactive) in the assay with OVCAR-5. The GI50 with SF-295 is > 100 µM (inactive); in the assay on SK-MEL-2, > 100 µM (inactive); in the assay with SW-620, > 100 µM (inactive); in the assay on T47D, 22.9 µM (inactive); in the assay with U-251 it was 78.9 µM (inactive).
Regarding `COc1ccc2c(CCN)c(C(=O)O)[nH]c2c1`, the GI50 with ACHN, in the assay on CAKI-1, with COLO 205, with DU-145, with HL-60 and in the assay with HOP-92 was > 100 µM (inactive) each time. In addition, the GI50 in the assay with KM12, in the assay with LOX IMVI, in the assay with MDA-MB-231, in the assay with MDA-MB-435, in the assay with Malme-3M and with NCI-H226 was > 100 µM (inactive) throughout. The GI50 in the assay on OVCAR-5, with SF-295, with SK-MEL-2, in the assay on SW-620, with T47D and with U-251 was > 100 µM (inactive) each time.
Take `CCN(CC)/N=N/c1c(C(N)=O)n[nH]c1C`: the GI50 in the assay on ACHN is 32.8 µM (inactive); in the assay on CAKI-1, 17.9 µM (inactive); with COLO 205 it was 52.5 µM (inactive); in the assay with DU-145, 69.5 µM (inactive); in the assay with HOP-92, 11.3 µM (inactive); in the assay on KM12 it was 50 µM (inactive). The GI50 in the assay on LOX IMVI is 28.6 µM (inactive); in the assay on MDA-MB-231, > 100 µM (inactive); in the assay with MDA-MB-435, 77.4 µM (inactive); with Malme-3M, 64.3 µM (inactive); in the assay on NCI-H226 it was 48.9 µM (inactive); in the assay on SF-295 it was 38.1 µM (inactive). Moreover, the GI50 in the assay on SK-MEL-2 is > 100 µM (inactive); in the assay with SW-620 it was 71.3 µM (inactive); with T47D, 60.3 µM (inactive); in the assay on U-251, 59 µM (inactive).
With `COc1cc2oc3c(c(=O)c2c(O)c1/C=C/C(C)C)C(C=C(C)C)Oc1cc(O)ccc1-3` (stereo unspecified), the GI50 in the assay with ACHN was 15.4 µM (inactive); in the assay on CAKI-1, 18 µM (inactive); in the assay on COLO 205, 15.1 µM (inactive); in the assay on DU-145, 16.3 µM (inactive); with HL-60 it was 17.8 µM (inactive); in the assay with HOP-92, 15.6 µM (inactive). In addition, the GI50 in the assay on KM12 is 17.2 µM (inactive); in the assay on LOX IMVI, 14.2 µM (inactive); in the assay on MDA-MB-231, 18 µM (inactive); in the assay on MDA-MB-435, 15.9 µM (inactive); with Malme-3M it was 22.5 µM (inactive); with NCI-H226, 17.9 µM (inactive). Also, the GI50 with OVCAR-5 is 17 µM (inactive); with SF-295, 17.1 µM (inactive); in the assay on SK-MEL-2, 16 µM (inactive); with SW-620 it was 16.1 µM (inactive); in the assay with T47D, 16.4 µM (inactive); with U-251, 16.7 µM (inactive).
In the case of `COC(=O)C(CC(C)C)NC(=O)C(Cc1ccccc1)NC(=O)C1CCCN1C(=O)C(CO)NC(=O)c1ccc(-c2ccc(Cl)cc2Cl)o1` (stereo unspecified) (X38-SPFL-OMe; configuration not given here), the GI50 is 26.5 µM (inactive) in the assay on ACHN; 28.3 µM (inactive) in the assay with CAKI-1; 16 µM (inactive) with COLO 205; 38 µM (inactive) with DU-145; 19.5 µM (inactive) in the assay on HL-60; 21.2 µM (inactive) in the assay on HOP-92. Further, the GI50 in the assay with KM12 is 34 µM (inactive); in the assay with LOX IMVI, 21.8 µM (inactive); with MDA-MB-231, 15.5 µM (inactive); in the assay with MDA-MB-435, 28.3 µM (inactive); with Malme-3M, 42.1 µM (inactive); with NCI-H226 it was 19.1 µM (inactive). Also, the GI50 in the assay on OVCAR-5 is 21.9 µM (inactive); in the assay on SF-295, 19.5 µM (inactive); in the assay with SK-MEL-2, 16.9 µM (inactive); in the assay on SW-620, 30.7 µM (inactive); with T47D, 28.9 µM (inactive); with U-251 it was 21.4 µM (inactive).
